This assay has as its target T1, Caspase-3 (Homo sapiens, UniProt P42574).
T1 sequence (P42574 whole entry): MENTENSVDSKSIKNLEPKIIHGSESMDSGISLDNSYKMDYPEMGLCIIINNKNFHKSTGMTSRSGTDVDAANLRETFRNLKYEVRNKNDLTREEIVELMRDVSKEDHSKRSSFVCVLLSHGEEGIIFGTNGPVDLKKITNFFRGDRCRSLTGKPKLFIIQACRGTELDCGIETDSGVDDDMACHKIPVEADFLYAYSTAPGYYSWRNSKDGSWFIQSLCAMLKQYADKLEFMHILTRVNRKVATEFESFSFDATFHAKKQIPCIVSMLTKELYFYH
Kind of assay: In vitro inhibitory concentration against human caspase-3.

SMILES strings stand for the structures.

For `CC(=O)OCCN1C(=O)c2c(/C=C/c3ccc(C(F)(F)F)cc3)nc3ccc(S(=O)(=O)N4CCOCC4)cc3c2C1=O`, half-maximal inhibition (IC50) was put at 0.033 µM. To `CC(=O)OCCN1C(=O)c2c(N3CCOCC3)nc3ccc(S(=O)(=O)N4CCOCC4)cc3c2C1=O` belongs 15.4 µM; to `CC(=O)OCCN1C(=O)c2c(-c3cccnc3)nc3ccc(S(=O)(=O)N4CCOCC4)cc3c2C1=O`, 0.033 µM.

Take `CC(=O)OCCN1C(=O)c2c(C)nc3ccc(S(=O)(=O)N4CCOCC4)cc3c2C1=O`: inhibition was half-maximal at 0.023 µM (IC50). Turning to `CC(=O)OCCN1C(=O)c2c(-c3ccccc3)nc3ccc(S(=O)(=O)N4CCOCC4)cc3c2C1=O`, half-maximal inhibition (IC50) required 0.027 µM. The molecule `COC(=O)CS(=O)(=O)c1nc2ccc(S(=O)(=O)N3CCOCC3)cc2c2c1C(=O)N(CCOC(C)=O)C2=O` yielded an IC50 of 0.362 µM. `COC(=O)C[S+]([O-])c1nc2ccc(S(=O)(=O)N3CCOCC3)cc2c2c1C(=O)N(CCOC(C)=O)C2=O` (configuration not stated): half-maximal inhibition (IC50) was put at 0.352 µM.

Molecule `CC(=O)OCCN1C(=O)c2c(Cl)nc3ccc(S(=O)(=O)N4CCOCC4)cc3c2C1=O` gave an IC50 of 0.294 µM. On to `CC(=O)OCCN1C(=O)c2c(C(C)C)nc3ccc(S(=O)(=O)N4CCOCC4)cc3c2C1=O`, for which half-maximal inhibition (IC50) required 0.04 µM. As for `CC(=O)OCCN1C(=O)c2c(c3cc(S(=O)(=O)N4CCOCC4)ccc3[nH]c2=O)C1=O`, the midpoint of inhibition, the IC50, lay at 10.9 µM. To `CC(=O)OCCN1C(=O)c2c(-c3ccc(C(=O)N(C)C)cc3)nc3ccc(S(=O)(=O)N4CCOCC4)cc3c2C1=O` belongs 0.058 µM. `CC(=O)OCCN1C(=O)c2c(Nc3ccc(F)c(Cl)c3)nc3ccc(S(=O)(=O)N4CCOCC4)cc3c2C1=O` had an IC50 of 27.9 µM. Take `CC(=O)OCCN1C(=O)c2c(-c3ccco3)nc3ccc(S(=O)(=O)N4CCOCC4)cc3c2C1=O`: the IC50 came out at 0.036 µM. `COC(=O)CSc1nc2ccc(S(=O)(=O)N3CCOCC3)cc2c2c1C(=O)N(CCOC(C)=O)C2=O` had a half-inhibitory concentration (IC50) of 1.29 µM. Under `CCOC(=O)C[C@@H](Nc1nc2ccc(S(=O)(=O)N3CCOCC3)cc2c2c1C(=O)N(CCOC(C)=O)C2=O)C(=O)OCC` stands 5.19 µM. Under `CC(=O)OCCN1C(=O)c2c(-c3ccc(F)c(Cl)c3)nc3ccc(S(=O)(=O)N4CCOCC4)cc3c2C1=O` stands 0.033 µM; under `CC(=O)OCCN1C(=O)c2c(SC(=N)N)nc3ccc(S(=O)(=O)N4CCOCC4)cc3c2C1=O`, 0.255 µM.

(Values after ChEMBL document CHEMBL1144342, “Synthesis and structure-activity relationship of 4-substituted 2-(2-acetyloxyethyl)-8-(morpholine-4-sulfonyl)pyrrolo[3,4-c]quinoline-1,3-diones as potent caspase-3 inhibitors” (J Med Chem, 2005).)
